Measurements from patent US10738030B2, “Modulators of cystic fibrosis transmembrane conductance regulator” (Vertex Pharmaceuticals Incorporated, priority 2016, dated 2020).
pEC50: −log10 of the molar value.

Biological target: T1, F508del (Homo sapiens, UniProt P13569, DEL508-508)
T1 construct: expressed in transfected cells
Assay: Membrane potential optical assay (FRET voltage-sensor dyes), identification of correction compounds
Format: cell-based
Settings: NIH3T3 cells stably expressing F508del, procedures described above; for Emax: maximum efficacy, read-out: Max Efficacy; for pEC50: modulation of CFTR activity
Experimental: (§1) NIH3T3 mouse fibroblasts stably expressing F508del are used for optical measurements of membrane potential. The cells are maintained at 37° C. in 5% CO2 and 90% humidity in Dulbecco's modified Eagle's medium supplemented with 2 mM glutamine, 10% fetal bovine serum, 1×NEAA, β-ME, 1× pen/strep, and 25 mM HEPES in 175 cm^2 culture flasks. For all optical assays, the cells were seeded at 12,000 cells/well in 384-well matrigel-coated plates and cultured for 18-24 hrs at 37° C. for the potentiator assay. For the correction assays, the cells are cultured at 37° C. with and without compounds for 18-24 hours.
Membrane potential optical methods for assaying F508del modulation properties of compounds.
The optical membrane potential assay utilized voltage-sensitive FRET sensors described by Gonzalez and Tsien (See Gonzalez, J. E. and R. Y. Tsien (1995) “Voltage sensing by fluorescence resonance energy transfer in single cells” Biophys J 69(4): 1272-80, and Gonzalez, J. E. and R. Y. Tsien (1997) “Improved indicators of cell membrane potential that use fluorescence resonance energy transfer” Chem Biol 4(4): 269-77) in combination with instrumentation for measuring fluorescence changes such as the Voltage/Ion Probe Reader (VIPR) (See, Gonzalez, J. E., K. Oades, et al. (1999) “Cell-based assays and instrumentation for screening ion-channel targets” Drug Discov Today 4(9): 431-439).
These voltage sensitive assays are based on the change in fluorescence resonant energy transfer (FRET) between the membrane-soluble, voltage-sensitive dye, DiSBAC2(3), and a fluorescent phospholipid, CC2-DMPE, which is attached to the outer leaflet of the plasma membrane and acts as a FRET donor. Changes in membrane potential (Vm) cause the negatively charged DiSBAC2(3) to redistribute across the plasma membrane and the amount of energy transfer from CC2-DMPE changes accordingly. The changes in fluorescence emission were monitored using VIPR™ II, which is an integrated liquid handler and fluorescent detector designed to conduct cell-based screens in 96- or 384-well microtiter plates.
To identify small molecules that correct the trafficking defect associated with F508del; a single-addition HTS assay format was developed. The cells were incubated in serum-free medium for 16 hrs at 37° C. in the presence or absence (negative control) of test compound. As a positive control, cells plated in 384-well plates were incubated for 16 hrs at 27° C. to “temperature-correct” F508del. The cells were subsequently rinsed 3× with Krebs Ringers solution and loaded with the voltage-sensitive dyes. To activate F508del, 10 μM forskolin and the CFTR potentiator, genistein (20 μM), were added along with Cl^−-free medium to each well. The addition of Cl^−-free medium promoted Cl^− efflux in response to F508del activation and the resulting membrane depolarization was optically monitored using the FRET-based voltage-sensor dyes.
• Bath Solution #1: (in mM) NaCl 160, KCl 4.5, CaCl2 2, MgCl2 1, HEPES 10, pH 7.4 with NaOH. • Chloride-free bath solution: Chloride salts in Bath Solution #1 (above) are substituted with gluconate salts. • CC2-DMPE: Prepared as a 10 mM stock solution in DMSO and stored at −20° C. • DiSBAC2(3): Prepared as a 10 mM stock in DMSO and stored at −20° C. Cell Culture
as §1, with “seeded at 30,000/well in 384-well” for “seeded at 12,000 cells/well in 384-well”, “cultured for 2 hrs at” for “cultured for 18-24 hrs at”, “37° C. before culturing at 27° C. for 24 hrs for the” for “37° C. for the”, “cultured at 27° C. or 37° C.” for “cultured at 37° C.”, “compounds for 16-24 hours.” for “compounds for 18-24 hours.”

T1 sequence (P13569 with tags, fused parts or gaps DEL508-508): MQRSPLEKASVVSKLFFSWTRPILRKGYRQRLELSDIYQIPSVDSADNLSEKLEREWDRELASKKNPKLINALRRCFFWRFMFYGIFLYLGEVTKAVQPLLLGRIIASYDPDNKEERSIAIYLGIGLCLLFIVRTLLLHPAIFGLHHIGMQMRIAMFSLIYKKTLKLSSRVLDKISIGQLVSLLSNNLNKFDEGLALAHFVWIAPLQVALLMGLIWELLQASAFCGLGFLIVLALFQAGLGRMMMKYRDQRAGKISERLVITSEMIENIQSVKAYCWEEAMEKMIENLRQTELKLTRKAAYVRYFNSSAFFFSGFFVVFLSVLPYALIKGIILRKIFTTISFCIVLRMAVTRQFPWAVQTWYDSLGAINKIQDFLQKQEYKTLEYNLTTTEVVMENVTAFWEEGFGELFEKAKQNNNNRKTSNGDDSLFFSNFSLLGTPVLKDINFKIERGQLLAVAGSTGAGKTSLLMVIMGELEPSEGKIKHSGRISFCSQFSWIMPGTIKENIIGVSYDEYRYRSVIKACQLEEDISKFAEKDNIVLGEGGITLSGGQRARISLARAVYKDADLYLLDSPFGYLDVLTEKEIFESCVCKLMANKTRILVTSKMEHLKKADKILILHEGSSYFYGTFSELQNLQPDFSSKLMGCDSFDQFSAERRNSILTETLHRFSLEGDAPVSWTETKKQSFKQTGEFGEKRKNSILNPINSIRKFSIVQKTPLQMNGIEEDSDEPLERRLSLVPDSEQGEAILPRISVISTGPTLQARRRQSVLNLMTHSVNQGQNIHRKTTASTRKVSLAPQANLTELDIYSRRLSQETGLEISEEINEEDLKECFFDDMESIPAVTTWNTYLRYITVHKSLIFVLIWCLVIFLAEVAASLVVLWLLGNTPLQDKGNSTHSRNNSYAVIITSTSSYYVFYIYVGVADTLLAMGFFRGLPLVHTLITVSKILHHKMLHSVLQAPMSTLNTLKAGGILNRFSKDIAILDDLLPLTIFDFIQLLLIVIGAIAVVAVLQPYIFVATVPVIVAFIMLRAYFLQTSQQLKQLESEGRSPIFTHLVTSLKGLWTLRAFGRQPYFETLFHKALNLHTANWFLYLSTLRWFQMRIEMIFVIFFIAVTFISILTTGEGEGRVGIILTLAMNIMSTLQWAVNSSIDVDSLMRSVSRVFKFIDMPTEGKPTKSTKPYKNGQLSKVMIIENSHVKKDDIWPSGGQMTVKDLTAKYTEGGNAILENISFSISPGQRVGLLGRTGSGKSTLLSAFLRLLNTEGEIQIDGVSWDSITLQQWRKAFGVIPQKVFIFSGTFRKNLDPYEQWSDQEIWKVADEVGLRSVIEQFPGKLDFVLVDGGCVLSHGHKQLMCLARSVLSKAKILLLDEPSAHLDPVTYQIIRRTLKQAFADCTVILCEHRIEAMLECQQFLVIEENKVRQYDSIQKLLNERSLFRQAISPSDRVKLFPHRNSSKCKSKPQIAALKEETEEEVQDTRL

SMILES | Emax | pEC50
CC(C)COc1cc(F)cc(-c2ccc(C(=O)NS(=O)(=O)c3cccc(N)n3)c(N(C)CC(F)F)n2)c1 [Compound 1, N-[(6-amino-2-pyridyl)sulfonyl]-2-[2,2-difluoroethyl(methyl)amino]-6-(3-fluoro-5-isobutoxy-phenyl)pyridine-3-carboxamide] | > 80% | > 5.52
CC(C)CCOc1nc(-c2cc(F)cc(OCC(C)C)c2)ccc1C(=O)NS(=O)(=O)c1cccc(N)n1 [Compound 2, N-[(6-amino-2-pyridyl)sulfonyl]-6-(3-fluoro-5-isobutoxy-phenyl)-2-isopentyloxy-pyridine-3-carboxamide] | > 80% | > 5.52
CC(C)COc1cc(F)cc(-c2ccc(C(=O)NS(=O)(=O)c3cccc(N)n3)c(OCCC(C)(C)C)n2)c1 [Compound 3, N-[(6-amino-2-pyridyl)sulfonyl]-2-(3,3-dimethylbutoxy)-6-(3-fluoro-5-isobutoxy-phenyl)pyridine-3-carboxamide] | > 80% | > 5.52
CC(C)COc1cc(F)cc(-c2ccc(C(=O)NS(=O)(=O)c3cccc(N)n3)c(OCCOC(C)(C)C)n2)c1 [Compound 4, N-[(6-amino-2-pyridyl)sulfonyl]-2-(2-tert-butoxyethoxy)-6-(3-fluoro-5-isobutoxy-phenyl)pyridine-3-carboxamide] | 30 to 80% | > 5.52
CC(C)COc1cc(F)cc(-c2ccc(C(=O)NS(=O)(=O)c3cccc(N)n3)c(OC(C)C)n2)c1 [Compound 5, N-[(6-amino-2-pyridyl)sulfonyl]-6-(3-fluoro-5-isobutoxy-phenyl)-2-isopropoxy-pyridine-3-carboxamide] | > 80% | > 5.52
CC(C)COc1cc(F)cc(-c2ccc(C(=O)NS(=O)(=O)c3cccc(N)n3)c(OC(C)C(F)(F)C(F)F)n2)c1 (centres unmarked) [Compound 6, N-[(6-amino-2-pyridyl)sulfonyl]-6-(3-fluoro-5-isobutoxy-phenyl)-2-(2,2,3,3-tetrafluoro-1-methyl-propoxy)pyridine-3-carboxamide] | 30 to 80% | > 5.52
CC(C)COc1cc(F)cc(-c2ccc(C(=O)NS(=O)(=O)c3cccc(N)n3)c3nc(C(F)(F)F)cn23)c1 [Compound 7, N-[(6-amino-2-pyridyl)sulfonyl]-5-(3-fluoro-5-isobutoxy-phenyl)-2-(trifluoromethyl)imidazo[1,2-a]pyridine-8-carboxamide] | 30 to 80% | > 5.52
CCN(CC)c1nc(-c2ccc(OC(C)C)nc2)ccc1C(=O)NS(=O)(=O)c1cccc(N)n1 [Compound 8, N-((6-Aminopyridin-2-yl)sulfonyl)-6-(diethylamino)-6′-isopropoxy-[2,3′-bipyridine]-5-carboxamide] | 30 to 80% | 5.00 to 5.52
CC(C)COc1cc(F)cc(-c2ccc(C(=O)NS(=O)(=O)c3cccc(N)n3)c(OC(C)CC(F)(F)F)n2)c1 (centres unmarked) [Compound 9, N-[(6-amino-2-pyridyl)sulfonyl]-6-(3-fluoro-5-isobutoxy-phenyl)-2-(3,3,3-trifluoro-1-methyl-propoxy)pyridine-3-carboxamide] | 30 to 80% | > 5.52
COc1nc(-c2cc(F)cc(OCC(C)C)c2)ccc1C(=O)NS(=O)(=O)c1cccc(N)n1 [Compound 10, N-[(6-amino-2-pyridyl)sulfonyl]-6-(3-fluoro-5-isobutoxy-phenyl)-2-methoxy-pyridine-3-carboxamide] | 30 to 80% | > 5.52
CCCCCOc1nc(-c2cc(F)cc(OCC(C)C)c2)ccc1C(=O)NS(=O)(=O)c1cccc(N)n1 [Compound 11, N-[(6-amino-2-pyridyl)sulfonyl]-6-(3-fluoro-5-isobutoxy-phenyl)-2-pentoxy-pyridine-3-carboxamide] | > 80% | > 5.52
CCC(C)C(C)Oc1nc(-c2cc(F)cc(OCC(C)C)c2)ccc1C(=O)NS(=O)(=O)c1cccc(N)n1 (centres unmarked) [Compound 12, N-[(6-amino-2-pyridyl)sulfonyl]-2-(1,2-dimethylbutoxy)-6-(3-fluoro-5-isobutoxy-phenyl)pyridine-3-carboxamide] | > 80% | > 5.52
CCOCCOc1nc(-c2cc(F)cc(OCC(C)C)c2)ccc1C(=O)NS(=O)(=O)c1cccc(N)n1 [Compound 13, N-[(6-amino-2-pyridyl)sulfonyl]-2-(2-ethoxyethoxy)-6-(3-fluoro-5-isobutoxy-phenyl)pyridine-3-carboxamide] | 30 to 80% | > 5.52
CCN(c1nc(-c2ccc(OC(C)C)nc2)ccc1C(=O)NS(=O)(=O)c1cccc(N)n1)C(C)C [Compound 14, N-[(6-amino-2-pyridyl)sulfonyl]-2-[ethyl(isopropyl)amino]-6-(6-isopropoxy-3-pyridyl)pyridine-3-carboxamide] | 30 to 80% | > 5.52
CC(C)(C)COc1nc(C(C)(C)C)ccc1C(=O)NS(=O)(=O)c1cccc(N)n1 [Compound 15, N-[(6-amino-2-pyridyl)sulfonyl]-6-tert-butyl-2-(2,2-dimethylpropoxy)pyridine-3-carboxamide] | 30 to 80% | > 5.52
CCN(c1nc(-c2cc(F)cc(OCC(C)C)c2)ccc1C(=O)NS(=O)(=O)c1ccn[nH]1)C(C)C [Compound 16, 2-[ethyl(isopropyl)amino]-6-(3-fluoro-5-isobutoxy-phenyl)-N-(1H-pyrazol-5-ylsulfonyl)pyridine-3-carboxamide] | > 80% | > 5.52
CC(C)COc1cc(F)cc(-c2ccc(C(=O)NS(=O)(=O)c3cccc(N)n3)c(N(C)[C@@H](C)C(F)(F)F)n2)c1 [Compound 17, N-[(6-amino-2-pyridyl)sulfonyl]-6-(3-fluoro-5-isobutoxy-phenyl)-2-[methyl-[(1 S)-2,2,2-trifluoro-1-methyl-ethyl]amino]pyridine-3-carboxamide] | > 80% | > 5.52
CCC(COC)Oc1nc(-c2cc(F)cc(OCC(C)C)c2)ccc1C(=O)NS(=O)(=O)c1cccc(N)n1 (centres unmarked) [Compound 18, N-[(6-amino-2-pyridyl)sulfonyl]-6-(3-fluoro-5-isobutoxy-phenyl)-2-[1-(methoxymethyl)propoxy]pyridine-3-carboxamide] | 30 to 80% | > 5.52
CC(C)COc1cc(F)cc(-c2ccc(C(=O)NS(=O)(=O)c3cccc(N)n3)c(N(C)C)n2)c1 [Compound 19, N-[(6-amino-2-pyridyl)sulfonyl]-2-(dimethylamino)-6-(3-fluoro-5-isobutoxy-phenyl)pyridine-3-carboxamide] | > 80% | > 5.52
COC[C@H](C)Oc1nc(-c2cc(F)cc(OCC(C)C)c2)ccc1C(=O)NS(=O)(=O)c1cccc(N)n1 [Compound 20, N-[(6-amino-2-pyridyl)sulfonyl]-6-(3-fluoro-5-isobutoxy-phenyl)-2-[(1S)-2-methoxy-1-methyl-ethoxy]pyridine-3-carboxamide] | 30 to 80% | > 5.52
COCCCOc1nc(-c2cc(F)cc(OCC(C)C)c2)ccc1C(=O)NS(=O)(=O)c1cccc(N)n1 [Compound 21, N-[(6-amino-2-pyridyl)sulfonyl]-6-(3-fluoro-5-isobutoxy-phenyl)-2-(3-methoxypropoxy)pyridine-3-carboxamide] | 30 to 80% | > 5.52
COC(C)(C)CCOc1nc(-c2cc(F)cc(OCC(C)C)c2)ccc1C(=O)NS(=O)(=O)c1cccc(N)n1 [Compound 22, N-[(6-amino-2-pyridyl)sulfonyl]-6-(3-fluoro-5-isobutoxy-phenyl)-2-(3-methoxy-3-methyl-butoxy)pyridine-3-carboxamide] | 30 to 80% | > 5.52
